According to patent publication US9963464B2, “Macrocyclic compounds” (Bayer Pharma Aktiengesellschaft, priority 2014, dated 2018):

Columns and labels:
[1] = In vivo pharmacokinetics in rats; settings: male, Wistar, rat, plasma, iv, i.v. bolus dosing, read-out: t1/2: terminal half-life (converted)
Experimental: 7. In Vivo Pharmacokinetics in Rats
For in vivo pharmacokinetic experiments test compounds were administered to male Wistar rats intravenously at doses of 0.3 to 1 mg/kg formulated as solutions using either rat plasma or solubilizers such as PEG400 in well-tolerated amounts.
For pharmacokinetics after intravenous administration test compounds were given as i.v. bolus and blood samples were taken at 2 min, 8 min, 15 min, 30 min, 45 min, 1 h, 2 h, 4 h, 6 h, 8 h and 24 h after dosing. […] Blood was collected into Lithium-Heparin tubes (Monovetten®, Sarstedt) and centrifuged for 15 min at 3000 rpm. An aliquot of 100 μL from the supernatant (plasma) was taken and precipitated by addition of 400 μL ice cold acetonitrile and frozen at −20 OC over night. Samples were subsequently thawed and centrifuged at 3000 rpm, 4° C. for 20 minutes. Aliquots of the supernatants were taken for analytical testing using an Agilent 1200 HPLC-system with LCMS/MS detection. PK parameters were calculated by non-compartmental analysis using a PK calculation software.
PK parameters derived from concentration-time profiles after i.v.: CLplasma: Total plasma clearance of test compound (in L/kg/h); CLblood: Total blood clearance of test compound: CLplasma*Cp/Cb (in L/kg/h) with Cp/Cb being the ratio of concentrations in plasma and blood, AUCnorm: Area under the concentration-time curve from t=0 h to infinity (extrapolated) divided by the administered dose (in kg*h/L); t1/2: terminal half-life (in h).

[2] = tested on: MOLM-13 cells; experiment: Proliferation assay MOLM-13; format: cell-based; settings: Homo sapiens, 72-hour exposure, Cell Titre-Glo, read-out: Inhibition of MOLM-13 cell proliferation IC50
Experimental: (§1) Cultivated tumour cells (HeLa, human cervical tumour cells, ATCC CCL-2; NCI-H460, human non-small cell lung carcinoma cells, ATCC HTB-177; A2780, human ovarian carcinoma cells, ECACC #93112519; DU 145, hormone-independent human prostate carcinoma cells, ATCC HTB-81; HeLa-MaTu-ADR, multidrug-resistant human cervical carcinoma cells, EPO-GmbH Berlin; Caco-2, human colorectal carcinoma cells, ATCC HTB-37; B16F10, mouse melanoma cells, ATCC CRL-6475) were plated at a density of 5,000 cells/well (DU145, HeLa-MaTu-ADR), 3,000 cells/well (NCI-H460, HeLa), 2,500 cells/well (A2780), 1,500 cells/well (Caco-2), or 1,000 cells/well (B16F10) in a 96-well multititer plate in 200 μL of their respective growth medium supplemented 10% fetal calf serum. […] Cell proliferation was determined by staining the cells with crystal violet: the cells were fixed by adding 20 μl/measuring point of an 11% glutaric aldehyde solution for 15 minutes at room temperature. […] The extinction was determined by photometry at a wavelength of 595 nm. The change of cell number, in percent, was calculated by normalization of the measured values to the extinction values of the zero-point plate (=0%) and the extinction of the untreated (0 μm) cells (=100%). […] Cell viability was assessed after 72-hour exposure with the Cell Titre-Glo Luminescent Cell Viability Assay (Promega). […]

[3] = tested on: A2780 cells; experiment: Proliferation assay A2780; format: cell-based; settings: Homo sapiens, A2780, 96 h; 4 days, crystal violet; read-out: Inhibition of A2780 cell proliferation IC50
Experimental: as §1

Row | half-life [1] [h] | IC50 [2] [nM] | IC50 [3] [nM] | Structure (SMILES)
1 | 4.9 |  |  | CS(=N)(=O)Cc1cc2cc(c1)OCCCOc1cc(F)ccc1-c1nc(ncc1F)N2 (racemic) [Example 15, (rac)-15,19-difluoro-8-[(S-methylsulfonimidoyl)methyl]-3,4-dihydro-2H,11H-12,16-(azeno)-10,6-(metheno)-1,5,11,13-benzodioxadiazacyclooctadecine]
2 | 2.2 | 4 |  | CS(=N)(=O)Cc1cc2cc(c1)OCCCCOc1cc(F)ccc1-c1nc(ncc1F)N2 (racemic) [Example 1, (rac)-16,20-Difluoro-9-[(S-methylsulfonimidoyl)methyl]-2,3,4,5-tetrahydro-12H-13,17-(azeno)-11,7-(metheno)-1,6,12,14-benzodioxadiazacyclononadecine]
3 |  |  | 115 | CSCc1cc2nc(c1)OCCCCOc1cc(F)ccc1-c1cc(ncc1F)N2 [Example 12, 16,20-Difluoro-9-[(methylsulfanyl)methyl]-2,3,4,5-tetrahydro-12H-11,7-(azeno)-13,17-(metheno)-1,6,12,14-benzodioxadiazacyclononadecine]
4 | 7.2 | 2 |  | CS(=N)(=O)Cc1cc2nc(c1)OCCCOc1cc(F)ccc1-c1cc(ncc1F)N2 (racemic) [Example 5, (rac)-15,19-Difluoro-8-[(S-methylsulfonimidoyl)methyl]-3,4-dihydro-2H,11H-10,6-(azeno)-12,16-(metheno)-1,5,11,13-benzodioxadiazacyclooctadecine]
